Test results from article PMC8231556, “Inhibiting Endothelial Cell Function in Normal and Tumor Angiogenesis Using BMP Type I Receptor Macrocyclic Kinase Inhibitors” (Cancers, 2021).

Key:
Assay in all cases: radiometric kinase profiling (33 PanQinase)
Format in all cases: biochemical
ACVR1B = target: T1, ACVR1B (Homo sapiens, UniProt P36896); details: read-out: Inhibitory effect (%) ACVR1B
T1 construct: purchased Proqinase, Germany
T1 sequence (P36896 24-505): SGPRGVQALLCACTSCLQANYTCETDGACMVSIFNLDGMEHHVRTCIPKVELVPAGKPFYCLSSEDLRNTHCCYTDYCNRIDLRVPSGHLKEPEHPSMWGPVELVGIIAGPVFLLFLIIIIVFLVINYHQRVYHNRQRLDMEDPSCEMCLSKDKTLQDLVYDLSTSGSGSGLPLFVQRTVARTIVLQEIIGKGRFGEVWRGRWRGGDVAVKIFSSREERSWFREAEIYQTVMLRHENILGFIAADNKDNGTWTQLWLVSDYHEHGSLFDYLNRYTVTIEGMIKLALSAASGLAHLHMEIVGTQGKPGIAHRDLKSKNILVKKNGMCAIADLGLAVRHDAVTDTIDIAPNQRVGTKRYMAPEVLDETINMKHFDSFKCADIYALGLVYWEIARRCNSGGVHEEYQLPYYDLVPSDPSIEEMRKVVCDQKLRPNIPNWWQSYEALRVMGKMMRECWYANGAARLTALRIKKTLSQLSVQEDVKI
Summary of the method: (§1)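 Enzyme/substrate mixes were incubated with [γ-33P]-ATP and compound (added as a 0.1 μM solution in 10% DMSO) at 30 °C for 60 min, then stopped with H3PO4 and washed with NaCl. 33P incorporation was scintillation-counted, and residual activity (%) was normalized to untreated control and background.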

CDK1_cyclinA2 = target: T2, CDK1_cyclinA2 (Homo sapiens, UniProt P06493); details: read-out: Inhibitory effect (%) CDK1_cyclinA2
T2 construct: purchased Proqinase, Germany
Summary of the method: as §1

CDK9_cyclinT1 = target: T3, CDK9_cyclinT1 (Homo sapiens, UniProt P50750); details: read-out: Inhibitory effect (%) CDK9_cyclinT1
T3 construct: purchased Proqinase, Germany
Summary of the method: as §1

GSG2 = target: T4, GSG2 (Homo sapiens, UniProt Q8TF76); details: read-out: Inhibitory effect (%) GSG2
T4 construct: purchased ProQinase (33PanQinase Activity Assay)
T4 sequence (Q8TF76 1-798): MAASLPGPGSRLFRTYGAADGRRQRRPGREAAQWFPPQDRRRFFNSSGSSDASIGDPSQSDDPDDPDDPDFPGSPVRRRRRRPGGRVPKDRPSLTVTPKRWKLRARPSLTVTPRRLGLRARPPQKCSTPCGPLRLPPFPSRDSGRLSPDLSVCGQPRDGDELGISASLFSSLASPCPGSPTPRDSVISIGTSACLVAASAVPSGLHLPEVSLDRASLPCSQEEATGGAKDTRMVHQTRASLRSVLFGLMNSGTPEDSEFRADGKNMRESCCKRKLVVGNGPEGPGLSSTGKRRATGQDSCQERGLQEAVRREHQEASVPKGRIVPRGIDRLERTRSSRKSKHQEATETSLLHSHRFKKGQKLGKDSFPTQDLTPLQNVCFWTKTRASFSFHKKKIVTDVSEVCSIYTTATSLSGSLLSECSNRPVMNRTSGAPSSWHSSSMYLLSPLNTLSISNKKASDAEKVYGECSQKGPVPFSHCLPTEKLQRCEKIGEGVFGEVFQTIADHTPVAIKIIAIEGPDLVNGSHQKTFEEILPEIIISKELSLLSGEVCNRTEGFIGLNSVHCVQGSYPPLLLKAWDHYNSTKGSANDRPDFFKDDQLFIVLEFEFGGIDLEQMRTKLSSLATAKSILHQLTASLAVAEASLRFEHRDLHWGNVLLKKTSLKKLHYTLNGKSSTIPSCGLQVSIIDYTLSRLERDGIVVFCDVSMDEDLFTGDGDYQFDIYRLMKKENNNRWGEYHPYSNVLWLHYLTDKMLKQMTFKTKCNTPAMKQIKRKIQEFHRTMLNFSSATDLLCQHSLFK
Summary of the method: as §1

MAP3K7 = target: T5, MAP3K7 (Homo sapiens, UniProt O43318); details: read-out: Inhibitory effect (%) MAP3K7
T5 construct: purchased ProQinase (33PanQinase Activity Assay)
T5 sequence (O43318 1-303 limits assumed): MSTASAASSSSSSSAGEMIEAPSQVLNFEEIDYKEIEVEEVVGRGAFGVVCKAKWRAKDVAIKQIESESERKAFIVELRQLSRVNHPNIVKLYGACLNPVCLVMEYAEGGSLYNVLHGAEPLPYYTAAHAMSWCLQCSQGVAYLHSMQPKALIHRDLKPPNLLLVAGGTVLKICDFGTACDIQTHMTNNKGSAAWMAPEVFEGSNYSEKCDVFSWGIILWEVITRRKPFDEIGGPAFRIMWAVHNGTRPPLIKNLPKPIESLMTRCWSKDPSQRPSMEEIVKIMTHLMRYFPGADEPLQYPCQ
Summary of the method: as §1

NTRK1 = target: T6, NTRK1 (Homo sapiens, UniProt P04629); details: read-out: Inhibitory effect (%) NTRK1
T6 construct: purchased ProQinase (33PanQinase Activity Assay)
Summary of the method: as §1

PRKACA = target: T7, PRKACA (Homo sapiens, UniProt P17612); details: read-out: Inhibitory effect (%) PRKACA
T7 construct: purchased ProQinase (33PanQinase Activity Assay)
Summary of the method: as §1

T2 sequence (P06493 whole entry): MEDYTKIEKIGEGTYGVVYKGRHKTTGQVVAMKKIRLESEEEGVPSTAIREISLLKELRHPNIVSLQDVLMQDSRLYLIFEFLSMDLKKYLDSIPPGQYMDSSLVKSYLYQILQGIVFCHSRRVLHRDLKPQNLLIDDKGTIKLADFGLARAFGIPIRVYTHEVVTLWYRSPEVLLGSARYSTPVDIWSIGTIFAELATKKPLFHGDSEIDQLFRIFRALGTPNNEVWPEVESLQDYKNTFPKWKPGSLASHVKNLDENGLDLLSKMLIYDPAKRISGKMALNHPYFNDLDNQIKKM
T2 sequence (P20248 whole entry partner): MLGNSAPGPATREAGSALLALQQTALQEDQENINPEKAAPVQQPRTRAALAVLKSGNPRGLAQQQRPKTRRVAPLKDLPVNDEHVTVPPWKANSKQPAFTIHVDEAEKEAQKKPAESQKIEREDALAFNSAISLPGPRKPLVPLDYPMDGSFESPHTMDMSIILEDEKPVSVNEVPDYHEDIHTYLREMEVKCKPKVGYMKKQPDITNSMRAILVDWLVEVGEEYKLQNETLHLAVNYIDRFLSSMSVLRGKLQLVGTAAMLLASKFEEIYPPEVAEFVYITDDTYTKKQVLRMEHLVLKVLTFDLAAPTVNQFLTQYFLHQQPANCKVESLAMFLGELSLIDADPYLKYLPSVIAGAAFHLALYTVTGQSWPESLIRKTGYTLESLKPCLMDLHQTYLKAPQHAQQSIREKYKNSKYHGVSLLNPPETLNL
T3 sequence (P50750 whole entry): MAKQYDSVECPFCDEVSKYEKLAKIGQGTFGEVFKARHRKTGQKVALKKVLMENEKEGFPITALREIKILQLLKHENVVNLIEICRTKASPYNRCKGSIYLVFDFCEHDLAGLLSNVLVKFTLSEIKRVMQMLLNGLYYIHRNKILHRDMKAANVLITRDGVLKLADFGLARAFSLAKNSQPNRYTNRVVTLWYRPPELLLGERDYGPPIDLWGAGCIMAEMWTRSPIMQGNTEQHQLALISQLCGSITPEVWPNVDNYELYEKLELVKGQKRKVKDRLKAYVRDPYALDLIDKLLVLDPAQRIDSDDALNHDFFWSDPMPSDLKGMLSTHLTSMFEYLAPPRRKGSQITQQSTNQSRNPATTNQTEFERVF
T3 sequence (O60563 whole entry partner): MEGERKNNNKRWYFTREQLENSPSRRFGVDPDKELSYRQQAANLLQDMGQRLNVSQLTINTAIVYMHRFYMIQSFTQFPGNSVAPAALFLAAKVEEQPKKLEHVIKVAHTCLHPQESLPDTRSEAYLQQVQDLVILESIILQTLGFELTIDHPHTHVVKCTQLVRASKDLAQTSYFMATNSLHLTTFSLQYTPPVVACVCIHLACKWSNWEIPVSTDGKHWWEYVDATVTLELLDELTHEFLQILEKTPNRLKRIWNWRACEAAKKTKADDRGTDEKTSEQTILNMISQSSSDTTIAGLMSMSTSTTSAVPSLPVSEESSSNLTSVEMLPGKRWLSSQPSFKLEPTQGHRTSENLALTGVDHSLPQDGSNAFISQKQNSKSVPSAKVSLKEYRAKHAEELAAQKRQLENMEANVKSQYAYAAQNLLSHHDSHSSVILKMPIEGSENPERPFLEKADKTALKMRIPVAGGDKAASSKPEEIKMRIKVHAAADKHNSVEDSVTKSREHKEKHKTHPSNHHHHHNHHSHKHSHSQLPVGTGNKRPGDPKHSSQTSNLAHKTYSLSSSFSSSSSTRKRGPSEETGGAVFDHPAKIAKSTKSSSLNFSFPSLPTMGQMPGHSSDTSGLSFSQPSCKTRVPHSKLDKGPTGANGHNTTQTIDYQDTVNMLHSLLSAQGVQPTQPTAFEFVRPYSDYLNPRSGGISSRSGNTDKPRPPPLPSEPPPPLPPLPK
T6 sequence (P04629 33-796): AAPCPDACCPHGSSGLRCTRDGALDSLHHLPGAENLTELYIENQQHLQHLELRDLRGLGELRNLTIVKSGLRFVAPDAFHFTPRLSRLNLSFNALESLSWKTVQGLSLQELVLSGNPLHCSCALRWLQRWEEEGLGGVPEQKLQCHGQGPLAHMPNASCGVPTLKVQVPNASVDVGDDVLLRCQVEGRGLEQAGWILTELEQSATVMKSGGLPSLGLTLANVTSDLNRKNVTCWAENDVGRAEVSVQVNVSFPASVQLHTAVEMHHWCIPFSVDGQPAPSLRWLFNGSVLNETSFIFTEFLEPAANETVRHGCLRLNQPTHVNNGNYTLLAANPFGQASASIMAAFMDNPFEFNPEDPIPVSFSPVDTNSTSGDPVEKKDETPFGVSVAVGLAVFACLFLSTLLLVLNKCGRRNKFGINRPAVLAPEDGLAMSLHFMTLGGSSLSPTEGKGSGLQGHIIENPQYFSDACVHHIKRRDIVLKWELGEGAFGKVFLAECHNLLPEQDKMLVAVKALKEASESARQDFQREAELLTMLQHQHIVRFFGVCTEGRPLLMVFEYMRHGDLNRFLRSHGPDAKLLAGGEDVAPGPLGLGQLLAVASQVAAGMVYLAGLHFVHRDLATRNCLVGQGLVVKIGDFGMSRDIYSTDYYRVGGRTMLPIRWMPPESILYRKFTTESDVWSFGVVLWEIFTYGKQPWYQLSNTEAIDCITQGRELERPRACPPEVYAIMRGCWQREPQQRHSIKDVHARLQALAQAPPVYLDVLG

| SMILES | inhibition at 0.1 µM (ACVR1B) [%] | inhibition at 0.1 µM (CDK1_cyclinA2) [%] | inhibition at 0.1 µM (CDK9_cyclinT1) [%] | inhibition at 0.1 µM (GSG2) [%] | inhibition at 0.1 µM (MAP3K7) [%] | inhibition at 0.1 µM (NTRK1) [%] | inhibition at 0.1 µM (PRKACA) [%] |
| --- | --- | --- | --- | --- | --- | --- | --- |
| CN1CCC(=O)NCCNc2ccn3ncc(c3n2)-c2cccc(c2)C1 [OD29] | 5.71 | 23.7 | -2.77 | 34.6 | 11.4 | 69.6 | 9.09 |
| CN1CCc2cccc(c2)Nc2nccc(n2)N2CCCc3cc(ccc32)C1 [OD16] | 7.78 | -8.88 | 54.2 | 6.26 | -6.98 | -37.9 | -19.5 |
| c1ccc2c(-c3cnn4cc(-c5ccc(N6CCNCC6)cc5)cnc34)ccnc2c1 [LDN-193189, reference compound] | 23.9 | -2.18 | -26.7 | -5.75 | 7.07 | 14.1 | -14.1 |
